Measurements taken from patent US20230372288A1, “Application of Aristolochic Acid IVa in Preparation of Antihistamine or Drug for Treating Pneumonia” (priority 2022, published 2023).

Legend:
[1] = tested on: histamine-induced increase in mouse vascular permeability; assay: Histamine-induced increase in auricular vascular permeability, EB exudation test; type: in vivo, ICR mice; details: for Ear blue staining compared with histamine model group: observed within 30 min after histamine; for Amount of EB exudation: histamine 5 mg/kg tail vein on 4th day, both ears, n = 10, mean ± SD; for EB exudation reduction rate: histamine 5 mg/kg, vs histamine group
Protocol: ICR mice are divided into 6 groups, including a negative control group (control): physiological saline is administered by gavage for 3 days, and on the 4th day, the physiological saline is administered by tail vein injection; a histamine model group (histamine): the physiological saline is administered by the gavage for 3 days, and 5 mg/kg of the histamine is administered by the tail vein injection on the 4th day; an AA-IVa low-dose treatment group (histamine+AA-IVa/L): 5 mg/kg of AA-IVa is administered by the gavage for 3 days, and 5 mg/kg of the histamine is administered by the tail vein injection on the 4th day; and an AA-IVa high-dose treatment group (histamine+AA-IVa/H): 10 mg/kg of AA-IVa is administered by the gavage for 3 days, and 5 mg/kg of the histamine is administered by the tail vein injection on the 4th day.
AA-Iva: 0.5 wt % CMC-Na is used for preparation, and the concentration is 0.5 mg/ml and 0.25 mg/ml respectively. Histamine: 0.5 mg/ml of histamine solution is prepared with the physiological saline.
4.3 Modeling Method • (1) Principle: the histamine may cause an increase in permeability of capillary and venule walls, and plasma leaks into tissues, leading to local tissue edema. EB is a commonly used indicator for detecting the vascular permeability. After intravenous injection of mixed solution of histamine and EB into the mice, the increase in the vascular permeability caused by the histamine may be observed in a mouse auricle (the auricle is stained blue). • (2) Method for establishing model of increased auricular vascular permeability induced by histamine: after the histamine (0.5 mg/ml) is mixed with 0.8% EB solution at a ratio of 1:1 (volume), the tail vein injection is performed at 20 ml/kg of a volume according to the weight of each mouse. The auricular blue staining condition of the mouse is observed within 30 min after the histamine is administered, and a picture of the auricular blue staining is taken. • (3) Auricular vascular permeability test (EB exudation test): after the above auricular blue staining is observed and photographed, both ears are cut, and cut into pieces. After being soaked in 2 ml of formamide at a room temperature for 48 h, it is filtered with a 200-mesh stainless steel sieve. A filtrate is taken, and the absorbance (A) is measured at 610 nm. According to an EB standard curve, the amount (μg) of EB dye exudation is calculated.
EB exudation reduction rate (%)=(average value of EB exudation in histamine group−average value of EB exudation in administration group)/average value of EB exudation in histamine group×100%.
Statistical analysis is performed by using SPSS 20.0 software. The variance analysis is performed on the amount of EB exudation from the auricle tissue by using an ANOVA program. Data is expressed as mean±standard deviation (x±S), the histamine model group is compared with the control group, and each administration group is compared with the histamine model group, P<0.05 is considered as a significant difference.
ICR mice are divided into 4 groups, including a negative control group (control) (1): physiological saline is administered by gavage for 3 days, and on the 4th day, the physiological saline is administered by tail vein injection; a histamine model group (histamine) (2): the physiological saline is administered by the gavage for 3 days, and on the 4th day, 5 mg/kg of the histamine is administered by the tail vein injection; an AA-I treatment group (histamine+AA-I) (3): 10 mg/kg of AA-I is administered by the gavage for 3 days, and on the 4th day, 5 mg/kg of the histamine is administered by the tail vein injection; and an AA-II treatment group (histamine+AA-II) (4): 10 mg/kg of AA-II is administered by the gavage for 3 days, and on the 4th day, 5 mg/kg of the histamine is administered by the tail vein injection.
Preparation of AA-I and AA-II: 0.5 wt % CMC-Na is used to prepare AA-I and AA-II into 0.5 mg/ml respectively.

ICR mice = assay: Toxicity test, single gavage, death within 14 days and renal pathology; type: in vivo; details: 40 mg/kg once by gavage; for Death rate / Number of dead animals: 10 animals, within 14 days; for Renal pathological examination: survived animals after 14 days
Protocol: SPF-grade ICR mice are used, 18-22 g, with half male and half female. The animals are sourced from Beijing Vital River Laboratory Animal Technology Co., Ltd. After 1 day of adaptive feeding, the test substance is administered.
The mice are randomly divided into 4 groups: a control group (physiological saline is administered once by gavage) (1); an AA-I group (40 mg/kg of AA-I is administered once by the gavage) (2); an AA-II group (40 mg/kg of AA-II is administered once by the gavage) (3); and an AA-Iva group (40 mg/kg of AA-IVa is administered once by the gavage) (4).
Before the animals are administered by the gavage, it is fasted for 12 h without water deprivation. After being administered by the gavage, the animal death conditions within 14 days are recorded after the gavage administration. Survived animals are dissected, and kidneys are taken for the pathological examination.

[2] = tested on: histamine-induced pneumonia (lung tissue inflammatory exudation); assay: Histamine-induced pneumonia, pathological examination of lung tissue; type: in vivo, ICR mice; details: histamine 5 mg/kg, HE pathology
Text: 1. Experimental Method • (1) Model establishment, animal grouping and administration are the same as Embodiment 1. • (2) Pathological examination of lung tissue: after the mouse is euthanized due to vertebral detachment, it is dissected, and the lung tissue is taken out. The lung tissue is fixed with 10% neutral formalin for standby. After being fully fixed with formaldehyde, the submitted tissue is dehydrated step by step with ethanol, transparent with xylene, embedded with paraffin, and prepared conventionally into 3 μm of a paraffin section. HE, Masson, and PAS staining are used respectively, and the tissue inflammation exudation conditions are examined under an optical microscope (DP71 type, OLYMPUS, magnified by 400 times).
1. Experimental Method • (1) Model establishment, animal grouping and administration are the same as Contrast example 1. • (2) Pathological examination of lung tissue: same as Embodiment 2.

[3] = drug 10 mg/kg by gavage for 3 days
[4] = drug 5 mg/kg by gavage for 3 days

Row | SMILES | Amount of EB exudation compared to histamine model group (in words) ([1]; 10 mg/kg by gavage for 3 days) | Ear blue staining compared with histamine model group ([1]; 10 mg/kg by gavage for 3 days) | Amount of EB exudation [1, 3] [µg] | EB exudation reduction rate [1, 3] [%] | Death rate (ICR mice) [%] | Number of dead animals (ICR mice) | Renal pathological examination (ICR mice) | Thickening of alveolar septa and exudation of inflammatory cells in lung tissue compared to model group ([2]; 10 mg/kg by gavage for 3 days) | Amount of EB exudation compared to histamine model group (in words) ([1]; different doses (5 and 10 mg/kg by gavage for 3 days), P<0.001) | Ear blue staining compared with histamine model group ([1]; different doses (5 and 10 mg/kg by gavage for 3 days)) | Amount of EB exudation [1, 4] [µg] | EB exudation reduction rate [1, 4] [%] | Thickening of alveolar septa and exudation of inflammatory cells in lung tissue compared to model group ([2]; 5 mg/kg by gavage for 3 days)
1 | O=C(O)c1cc2c(c3c1c([N+](=O)[O-])cc1ccccc13)OCO2 [AA-II, Aristolochic Acid II] | no significant difference | no significant difference | 1.09 ± 0.34 | 7.6 | 10 | 1 | patchy tubular necrosis and tubular swelling | no significant difference compared to the histamine model group |  |  |  |  | 
2 | COc1cc(O)cc2c1cc([N+](=O)[O-])c1c(C(=O)O)cc3c(c12)OCO3 [AA-IVa, aristolochic acid IVa] |  |  | 0.82 ± 0.25 | 44.2 |  |  | no toxic damage | significant reduction compared to the model group | significantly decreased | significantly reduced | 0.93 ± 0.20 | 36.7 | significant reduction compared to the model group
3 | COc1cccc2c1cc([N+](=O)[O-])c1c(C(=O)O)cc3c(c12)OCO3 [AA-I, Aristolochic Acid I] | no significant difference | no significant difference | 1.01 ± 0.28 | 14.4 | 70 | 7 | diffuse tubular necrosis | no significant difference compared to the histamine model group |  |  |  |  | 
